The text below walks through data of ChEMBL document CHEMBL1201862, “PubChem BioAssay data set” (2004).

Molecules are shown by their SMILES.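 How tested: cells in 96-well plates exposed to compound for 48 hours at five concentrations. Abbreviation: GI50, concentration required for 50% inhibition of growth.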 The source made the active and inactive calls. Rule as the data show it: active = GI50 up to about 1.1 µM and inactive = higher. A value given as a limit tells only on which side of the number the result lay.

Assay in all cases: NCI tumour cell line growth inhibition, 48 h
In experiment [1] the test system is ACHN.
Experiment [2] relates to CCRF-CEM.
Experiment [3] has as its system COLO 205.
Experiment [4] relates to DU-145.
Experiment [5] has as its system EKVX.
Experiment [6] relates to HL-60.
Experiment [7] deals with MCF7.
Experiment [8] deals with MDA-MB-435.
Experiment [9] relates to NCI-H226.
Experiment [10] relates to NCI/ADR-RES.
Experiment [11] has as its system OVCAR-5.
In experiment [12] the test system is RPMI-8226.
Experiment [13] relates to SK-MEL-2.
Experiment [14] concerns SK-OV-3.
In experiment [15] the test system is SN12C.
Experiment [16] has as its system SNB-19.
Experiment [17] relates to SW-620.
The subject of experiment [18] is T47D.
Experiment [19] has as its system UO-31.

On to `CCCCn1cnc2c(c(CC#N)nn2-c2ccccc2)c1=N`, for which the GI50 in [1] was 66.1 µM (inactive); in [2] it was 47.6 µM (inactive); in experiment [3], 30.7 µM (inactive); in experiment [4], 76 µM (inactive); in [5] it was 48.8 µM (inactive); in experiment [6], 34 µM (inactive). For the same compound, the GI50 in experiment [7] was 43.2 µM (inactive); in experiment [8], 32.3 µM (inactive); in experiment [9] it was 79.1 µM (inactive); in [10], 41.2 µM (inactive); in experiment [11] it was > 100 µM (inactive); in [12] it was 27.4 µM (inactive). In addition, the GI50 in experiment [13] is 23.7 µM (inactive); in experiment [14], > 100 µM (inactive); in experiment [15], 70.8 µM (inactive); in experiment [16] it was > 100 µM (inactive); in [17], 41.9 µM (inactive); in [18], 35.7 µM (inactive). Besides, the GI50 in experiment [19] is 60.4 µM (inactive).
`c1ccc(N2N=C3N(c4ccccc4)C2N3c2ccccc2)cc1`: the GI50 is 40.5 µM (inactive) in [1]; 20.7 µM (inactive) in experiment [2]; 19.5 µM (inactive) in experiment [3]; 56.5 µM (inactive) in [4]; > 100 µM (inactive) in experiment [5]; 38.5 µM (inactive) in experiment [6]. The GI50 in experiment [7] was 31.9 µM (inactive); in [8], 17.6 µM (inactive); in [10] it was > 100 µM (inactive); in experiment [11], 71.9 µM (inactive); in experiment [12] it was 15.7 µM (inactive); in [13] it was 24.3 µM (inactive). Moreover, the GI50 in [14] is > 100 µM (inactive); in experiment [15], 48 µM (inactive); in experiment [16], 87.1 µM (inactive); in experiment [17], 33.4 µM (inactive); in experiment [18] it was 52.4 µM (inactive); in experiment [19], 58.9 µM (inactive).
With `Cn1c(=S)[nH]c2sc3c(c2c1=O)CCSC3`, the GI50 in experiment [1] is 42.9 µM (inactive); in experiment [3], 47.1 µM (inactive); in [4], 24.3 µM (inactive); in experiment [5], 20.8 µM (inactive); in experiment [6], 16.7 µM (inactive); in experiment [7] it was 44.3 µM (inactive). Moreover, the GI50 in experiment [8] was 49.1 µM (inactive); in experiment [9], 22 µM (inactive); in experiment [10] it was 31.3 µM (inactive); in [11], 53.7 µM (inactive); in [12], 32.4 µM (inactive); in [13], > 100 µM (inactive). Besides, the GI50 in [14] is 90.8 µM (inactive); in experiment [15], 40 µM (inactive); in experiment [16], 47.4 µM (inactive); in [17], 35.7 µM (inactive); in experiment [18], 25.1 µM (inactive); in experiment [19], 11.7 µM (inactive).
On to `Cc1cc(C)c2cc(N)c(Cl)nc2n1`, for which the GI50 in experiment [1], in experiment [2], in experiment [3], in experiment [4], in experiment [5] and in [6] was > 100 µM (inactive) each time. The GI50 in experiment [7], in [8], in experiment [9], in experiment [10], in [11] and in [12] was > 100 µM (inactive) in each case. The GI50 in experiment [13], in experiment [14], in experiment [15], in experiment [16], in experiment [17] and in experiment [18] was > 100 µM (inactive) in each case. Also, the GI50 in experiment [19] is 63.4 µM (inactive).
Turning to `Cc1cc2oc(=N)c(C#N)c(C)c2cc1C`, the GI50 is 38.5 µM (inactive) in [1]; 36.6 µM (inactive) in experiment [2]; 48.1 µM (inactive) in experiment [3]; 84.7 µM (inactive) in [4]; 30.3 µM (inactive) in experiment [5]; 33.4 µM (inactive) in [6]. Further, the GI50 is 31.9 µM (inactive) in experiment [7]; 51.5 µM (inactive) in [8]; 87.7 µM (inactive) in experiment [9]; 55.1 µM (inactive) in [10]; > 100 µM (inactive) in [11]; 42.7 µM (inactive) in experiment [12]. Moreover, the GI50 in [13] was 51.8 µM (inactive); in experiment [14], 35.2 µM (inactive); in experiment [15], 96.2 µM (inactive); in [16], 83.2 µM (inactive); in experiment [17], 67.6 µM (inactive); in experiment [18], 40.6 µM (inactive). Besides, the GI50 in [19] is 45.1 µM (inactive).
For `Cc1cn2c(/C=N/NC(=N)N)c(-c3ccc([N+](=O)[O-])cc3)nc2s1`, the GI50 is 1.49 µM (inactive) in experiment [1]; 0.194 µM (active) in experiment [2]; 0.685 µM (active) in [3]; 2.49 µM (inactive) in [4]; 0.338 µM (active) in experiment [5]; 1.53 µM (inactive) in experiment [6]. Also, the GI50 in experiment [7] was 0.252 µM (active); in experiment [8], 1.57 µM (inactive); in experiment [9], 1.87 µM (inactive); in [10], 4.04 µM (inactive); in experiment [11], 0.785 µM (active); in experiment [12], 1.42 µM (inactive). Besides, the GI50 is 1.36 µM (inactive) in [13]; 1.76 µM (inactive) in experiment [14]; 1.46 µM (inactive) in experiment [15]; 0.357 µM (active) in experiment [16]; 0.175 µM (active) in experiment [17]; 0.566 µM (active) in experiment [18]. For the same compound, in experiment [19], the GI50 is 1.95 µM (inactive).
As for `C#CCNC(CSSCC(N)C(=O)O)C(=O)O` (stereo unspecified), the GI50 in experiment [1], in [2], in [3], in experiment [4], in experiment [5] and in experiment [7] was > 100 µM (inactive) each time. Further, the GI50 in [8], in experiment [9], in [10], in [11], in experiment [12] and in experiment [13] was > 100 µM (inactive) in each case. The GI50 in [14], in experiment [16], in [17], in experiment [18] and in [19] was > 100 µM (inactive) each time.
As to `CC(C)(C)[Si](C)(C)OCCCCC1CC2(S(=O)(=O)C3=CC=C=C=C3)ON1CC2S(=O)(=O)c1ccccc1` (stereo unspecified), the GI50 in [1], in experiment [3], in experiment [4], in [5], in [7] and in experiment [8] was > 100 µM (inactive) each time. The GI50 in experiment [9], in [10], in experiment [11], in [12], in experiment [13] and in experiment [14] was > 100 µM (inactive) in each case. For the same compound, the GI50 in experiment [15], in experiment [16], in [17], in [18] and in [19] was > 100 µM (inactive) each time.
